From patent US9388142B2, “Quinazolinone derivatives as PARP inhibitors” (MERCK PATENT GMBH, priority 2012, dated 2016) come the findings set out here.

As usually defined, the pIC50 is −log10 of the IC50, conventionally taken in molar units.

pIC50: −log10 of the molar value. Where only a bound is given, the exact number is not on record here.

Experiment [1] concerns the target GST-tagged Tankyrase-2 (873-1166 aa) (Homo sapiens, UniProt Q9H2K2). Kind of experiment: biochemical. The text has this: (§1) aq (aqueous), h (hour), g (gram), L (liter), mg (milligram), MHz (Megahertz), min. (minute), mm (millimeter), mmol (millimole), mM (millimolar), m.p. (melting point), eq (equivalent), mL (milliliter), L (microliter), ACN (acetonitrile), AcOH (acetic acid), CDCl3 (deuterated chloroform), CD3OD (deuterated methanol), CH3CN (acetonitrile), c-hex (cyclohexane), DCC (dicyclohexyl carbodiimide), DCM (dichloromethane), DIC (diisopropyl carbodiimide), DIEA (diisopropylethyl-amine), DMF (dimethylformamide), DMSO (dimethylsulfoxide), DMSO-d6 (deuterated dimethylsulfoxide), EDC (1-(3-dimethyl-amino-propyl)-3-ethylcarbodiimide), ESI (Electro-spray ionization), EtOAc (ethyl acetate), Et2O (diethyl ether), EtOH (ethanol), HATU (dimethylamino-([1,2,3]triazolo[4,5-b]pyridin-3-yloxy)-methylene]-dimethylammonium hexafluorophosphate), HPLC (High Performance Liquid Chromatography), i-PrOH (2-propanol), K2CO3 (potassium carbonate), LC (Liquid Chromatography), MeOH (methanol), MgSO4 (magnesium sulfate), MS (mass spectrometry), MTBE (Methyl tert-butyl ether), NaHCO3 (sodium bicarbonate), NaBH4 (sodium borohydride), NMM (N-methyl morpholine), NMR (Nuclear Magnetic Resonance), PyBOP (benzotriazole-1-yl-oxy-trispyrrolidino-phosphonium hexafluorophosphate), RT (room temperature), Rt (retention time), SPE (solid phase extraction), TBTU (2-(1-H-benzotriazole-1-yl)-1,1,3,3-tetramethyluromium tetrafluoro borate), TEA (triethylamine), TFA (trifluoroacetic acid), THF (tetrahydrofuran), TLC (Thin Layer Chromatography), UV (Ultraviolet). Description of the In Vitro Assays Abbreviations: GST=Glutathione-S-transferase FRET=Fluorescence resonance energy transfer HTRF®=(homogenous time resolved fluorescence) HEPES=4-(2-hydroxyethyl)-1-piperazine ethanesulfonic acid buffer DTT=Dithiothreitol BSA=bovine serum albumin CHAPS=detergent; CHAPS=3[(3-cholamidopropyl)dimethylammonio]-1-propanesulfonate Streptavidin-XLent® is a high grade streptavidin-XL665 conjugate for which the coupling conditions have been optimized to yield a conjugate with enhanced performances for some assays, particularly those requiring high sensitivity.
(§2) The autoparsylation assay is run in two steps: the enzymatic reaction in which GST-tagged Tankyrase-1, resp Tankyrase-2 transferred biotinylated ADP-ribose to itself from biotinylated NAD as co-substrate and the detection reaction where a time resolved FRET between cryptate labelled anti-GST bound to the GST tag of the enzyme and Xlent® labelled-streptavidin bound the biotin-parsylation residue is analysed. The autoparsylation activity was detectable directly via the increase in HTRF signal.
(§3) The autoparsylation assay is performed as 384-well HTRF® (Cisbio, Codolet, France) assay format in Greiner low volume nb 384-well microtiter plates and is used for high throughput screen. […] The reaction is stopped by the addition of 1 μl 50 mM EDTA solution. […] The ratio of the emission signals is determined. The full value used is the inhibitor-free reaction. […] The inhibitory values (IC50) are determined using either the program Symyx Assay Explorer® or Condosseo® from GeneData.

Experiment [2] addresses T1, GST-tagged Tankyrase-1 (1023-1327 aa) (Homo sapiens, UniProt O95271).
T1 construct: GST-tagged Tankyrase-1 (1023-1327 aa)
Kind of experiment: biochemical. The settings on record: read-out: IC50 tankyrase 1 (enzyme assay).
Source text: as §1, §2, §3

T1 sequence (O95271 1023-1327): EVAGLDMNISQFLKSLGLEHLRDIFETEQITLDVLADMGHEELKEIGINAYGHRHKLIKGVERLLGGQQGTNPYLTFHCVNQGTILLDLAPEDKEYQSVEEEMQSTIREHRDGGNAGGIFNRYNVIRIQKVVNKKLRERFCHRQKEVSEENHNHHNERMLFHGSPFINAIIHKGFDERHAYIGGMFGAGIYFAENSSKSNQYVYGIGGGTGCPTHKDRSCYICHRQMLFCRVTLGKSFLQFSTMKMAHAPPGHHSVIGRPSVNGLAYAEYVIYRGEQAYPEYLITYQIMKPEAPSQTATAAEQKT
GST-tagged Tankyrase-2 (873-1166 aa), sequence (Q9H2K2 873-1166): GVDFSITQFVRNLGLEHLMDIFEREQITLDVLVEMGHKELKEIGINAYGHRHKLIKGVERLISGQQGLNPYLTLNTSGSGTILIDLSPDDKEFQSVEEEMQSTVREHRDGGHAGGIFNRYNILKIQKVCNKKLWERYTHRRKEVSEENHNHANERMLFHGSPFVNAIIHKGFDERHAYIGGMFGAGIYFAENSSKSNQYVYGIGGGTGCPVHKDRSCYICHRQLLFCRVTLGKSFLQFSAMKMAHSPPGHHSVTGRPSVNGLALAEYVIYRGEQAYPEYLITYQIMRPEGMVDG

For the molecule `CC(C)(O)c1ccc(-c2nc3c(F)cc(F)c(F)c3c(=O)[nH]2)cc1` [Compound A26, 5,6,8-trifluoro-2-[4-(1-hydroxy-1-methyl-ethyl)-phenyl]-3H-quinazolin-4-one], the pIC50 in experiment [1] was 5.52 to 6.52; in experiment [2], over 6.52.
In the same order, the values of `CCC(O)(CC)c1ccc(-c2nc3ccc(F)cc3c(=O)[nH]2)cc1` [Compound A14, 2-[4-(1-ethyl-1-hydroxy-propyl)phenyl]-6-fluoro-3H-quinazolin-4-one] are 5.52 to 6.52 and over 6.52.
On the same counts, the results for `O=c1[nH]c(-c2ccc(C3(O)CCCC3)cc2)nc2ccc(F)cc12` [Compound A16, 6-fluoro-2-[4-(1-hydroxycyclopentyl)phenyl]-3H-quinazolin-4-one] are 5.52 to 6.52 and over 6.52.
On the same counts, the results for `Cc1cc(F)cc2c(=O)[nH]c(-c3ccc(N4CCC(O)CC4)cc3)nc12` [Compound A29, 6-fluoro-2-[4-(4-hydroxy-piperidin-1-yl)-phenyl]-8-methyl-3H-quinazolin-4-one] are 5.52 to 6.52 and 5.52 to 6.52.
In the case of `Cc1cc(F)cc2c(=O)[nH]c(-c3ccc(N4CCC(CO)CC4)cc3)nc12` [Compound A31, 6-fluoro-2-[4-(4-hydroxymethyl-piperidin-1-yl)-phenyl]-8-methyl-3H-quinazolin-4-one], the pIC50 in experiment [1] and in experiment [2] was 5.52 to 6.52 each time.
